# Values of other authors, collected in patent publication US20220175755A1, “METHODS OF TREATING TOBACCO SMOKING ADDICTION, AND TREATING NICOTINE AND TOBACCO SMOKING ADDICTION” (Pharma Unlimited B.V., priority 2017, published 2022).
# Like-named read-outs stand apart in the source and are kept apart here.
# Legend:
# [1] = system: number of cigarettes smoked by tobacco smokers; conditions: aerosol with an inhaler, dose of 400 μg CBD dissolved in absolute ethanol≈5%
# [2] = transdermal patches
# [3] = nicotine replacement therapy using chewing gum
Compound,reduction of the number of cigarettes smoked [1] [%],time after applying a patch at which blood nicotine levels start to rise [2],"blood concentration after stopping chewing the gum (chewing gum, 90 minutes after stopping chewing)",peak nicotine absorption rate (chewing tobacco),time of peak nicotine absorption rate (chewing tobacco) [min],peak blood concentration [3],peak nicotine absorption rate [3],time for nicotine absorption rate to decline to zero [3],time of peak nicotine absorption rate [3] [min],time to peak blood concentration [3],peak blood concentration (smoking cigarettes),peak nicotine absorption rate (smoking cigarettes),time of peak nicotine absorption rate (smoking cigarettes),time to peak blood concentration (smoking cigarettes),"time for blood concentration to fall to 70% of the peak value (smoking cigarettes, after finishing smoking)"
C=C(C)[C@@H]1CCC(C)=C[C@H]1c1c(O)cc(CCCCC)cc1O [CBD],40,–,–,–,–,–,–,–,–,–,–,–,–,–,–
"CN1CCC[C@H]1c1cccnc1 [nicotine, 3-[(2S)-1-methylpyrrolidine-2-yl]pyridine]",–,about 30 minutes,about 7 ng/ml,around 145 μg/min,5,less than 9 ng/ml,around 65 μg/min,about 90 minutes,10,about 30 minutes,around 15 ng/ml,around 200 μg/min,about 5 minutes,about 10 minutes,about 20 minutes
